Data taken from PubChem BioAssay AID743505 (Broad Institute, 2014).
Active and inactive are the calls of the source.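 The calls were made as follows: active = dose curve with falling signal and an AC50 no higher than twice the top valid tested dose; inconclusive = flat curve with 30 to 70% inhibition, or a poor fit; inactive = rising signal, flat weak curve, or AC50 over that limit.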

Target: Melanocortin receptor 4 (Homo sapiens) (UniProt P32245)
Experiment: MC4R antagonists in CRE-luciferase reporter cells, dose response, counter-screen for LGR2 antagonist project, cell-based, HEK293, luminescence, dry powder (AID 743505)
Details: antagonist mode; for activity change, negative = inhibition: at 35 µM (top of the series)

Chain of Melanocortin receptor 4 (Homo sapiens) (P32245 whole entry, looked up): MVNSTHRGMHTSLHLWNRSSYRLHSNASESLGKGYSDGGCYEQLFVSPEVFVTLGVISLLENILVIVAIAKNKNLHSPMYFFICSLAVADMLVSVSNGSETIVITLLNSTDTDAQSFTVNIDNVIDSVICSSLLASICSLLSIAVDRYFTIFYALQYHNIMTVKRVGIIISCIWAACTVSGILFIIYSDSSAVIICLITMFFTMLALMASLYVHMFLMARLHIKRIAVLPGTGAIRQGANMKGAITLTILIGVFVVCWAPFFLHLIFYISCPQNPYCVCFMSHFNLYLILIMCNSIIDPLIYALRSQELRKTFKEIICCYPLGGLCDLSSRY

Row | Structure (SMILES) | activity change, negative = inhibition | AC50
1 | C[C@H]1CCCCO[C@@H](CN(C)C(=O)Nc2ccc3c(c2)OCO3)[C@@H](C)CN([C@@H](C)CO)C(=O)c2cc(NC(=O)NC3CCCCC3)ccc2O1 | inactive | 
2 | C[C@@H]1CCCCO[C@@H](CN(C)C(=O)Nc2cccc3ccccc23)[C@H](C)CN([C@@H](C)CO)C(=O)c2cc(NC(=O)C3CCCCC3)ccc2O1 |  | > 70 µM (inactive)
3 | C[C@H](CO)N1C[C@H](C)[C@H](CN(C)C(=O)Nc2ccccc2)OCCCC[C@H](C)Oc2ccc(NC(=O)Nc3ccccc3)cc2C1=O | inactive | 
4 | Cc1ccc(NC(=O)N(C)C[C@@H]2OCCCC[C@H](C)Oc3ccc(NC(=O)C4CCCCC4)cc3C(=O)N([C@H](C)CO)C[C@@H]2C)cc1 | inactive | 
5 | C[C@H](CO)N1C[C@H](C)[C@H](CN(C)C(=O)Nc2ccc(C(F)(F)F)cc2)OCCCC[C@H](C)Oc2ccc(NC(=O)NC3CCCCC3)cc2C1=O | inactive | 
6 | C[C@@H]1CCCCO[C@H](CN(C)C(=O)Nc2cccc3ccccc23)[C@@H](C)CN([C@H](C)CO)C(=O)c2cc(NC(=O)C3CCCCC3)ccc2O1 |  | > 70 µM (inactive)
7 | C[C@H](CO)N1C[C@H](C)[C@@H](CN(C)C(=O)Nc2cccc3ccccc23)OCCCC[C@H](C)Oc2ccc(NC(=O)C3CCCCC3)cc2C1=O | inactive | 
8 | CC(C)(C)c1ccc(-c2nc(-c3ccncc3)no2)cc1 | inactive | 
9 | C[C@H]1CCCCO[C@@H](CN(C)C(=O)Nc2ccc(F)cc2)[C@@H](C)CN([C@@H](C)CO)C(=O)c2cc(NC(=O)C3CCCCC3)ccc2O1 | inactive | 
10 | C[C@H](CO)N1C[C@H](C)[C@H](CN(C)C(=O)Nc2ccc(F)cc2)OCCCC[C@H](C)Oc2ccc(NC(=O)C3CCOCC3)cc2C1=O | inactive | 
11 | C[C@H](CO)N1C[C@H](C)[C@H](CN(C)C(=O)Nc2ccc(F)cc2)OCCCC[C@H](C)Oc2ccc(NC(=O)Nc3ccccc3)cc2C1=O | inactive | 
12 | C[C@H](CO)N1C[C@H](C)[C@H](CN(C)C(=O)Nc2cccc3ccccc23)OCCCC[C@H](C)Oc2ccc(NC(=O)NC3CCCCC3)cc2C1=O | inactive | 
13 | C[C@H](CO)N1C[C@H](C)[C@H](CN(C)C(=O)Nc2ccc(F)cc2)OCCCC[C@H](C)Oc2ccc(NC(=O)NC3CCCCC3)cc2C1=O | inactive | 
14 | C[C@@H]1CN([C@@H](C)CO)C(=O)c2cc(NC(=O)C3CCCCC3)ccc2O[C@@H](C)CCCCO[C@@H]1CN(C)C(=O)Nc1cccc2ccccc12 | inactive | 
15 | C[C@H](CO)N1C[C@H](C)[C@H](CN(C)C(=O)Nc2cccc3ccccc23)OCCCC[C@H](C)Oc2ccc(NC(=O)c3ccccc3)cc2C1=O | inactive | 
16 | C[C@H](CO)N1C[C@H](C)[C@H](CN(C)C(=O)Nc2ccccc2F)OCCCC[C@H](C)Oc2ccc(NC(=O)C3CCCCC3)cc2C1=O | inactive | 
17 | C[C@@H]1CCCCO[C@@H](CN(C)C(=O)Nc2cccc3ccccc23)[C@H](C)CN([C@H](C)CO)C(=O)c2cc(NC(=O)C3CCCCC3)ccc2O1 |  | 7.91 µM
18 | C[C@@H]1CN([C@H](C)CO)C(=O)c2cc(NC(=O)C3CCCCC3)ccc2O[C@@H](C)CCCCO[C@H]1CN(C)C(=O)Nc1cccc2ccccc12 | inactive | 
19 | C[C@H](CO)N1C[C@H](C)[C@H](CN(C)C(=O)Nc2ccccc2)OCCCC[C@H](C)Oc2ccc(NC(=O)CCC(F)(F)F)cc2C1=O | inactive | 
20 | C[C@H](CO)N1C[C@H](C)[C@H](CN(C)C(=O)Nc2ccc(F)cc2)OCCCC[C@H](C)Oc2ccc(NC(=O)C3CC3)cc2C1=O | inactive | 
21 | C[C@H](CO)N1C[C@H](C)[C@H](CN(C)C(=O)Nc2ccc3c(c2)OCO3)OCCCC[C@H](C)Oc2ccc(NC(=O)C3CCCCC3)cc2C1=O | inactive | 
22 | C[C@H](CO)N1C[C@H](C)[C@H](CN(C)C(=O)Nc2ccc(F)cc2)OCCCC[C@H](C)Oc2ccc(NC(=O)C3CCCCCC3)cc2C1=O | inactive | 
23 | COc1ccc(NC(=O)N(C)C[C@@H]2OCCCC[C@H](C)Oc3ccc(NC(=O)NC4CCCCC4)cc3C(=O)N([C@H](C)CO)C[C@@H]2C)cc1 | inactive | 
24 | C[C@@H]1CCCCO[C@H](CN(C)C(=O)Nc2cccc3ccccc23)[C@H](C)CN([C@@H](C)CO)C(=O)c2cc(NC(=O)C3CCCCC3)ccc2O1 | inactive | 

Results, then the compound that gave them:

Row | activity change, negative = inhibition | AC50 | Structure (SMILES)
25 | inactive |  | C[C@H](CO)N1C[C@H](C)[C@H](CN(C)C(=O)Nc2ccccc2)OCCCC[C@H](C)Oc2ccc(NC(=O)Nc3ccc4c(c3)OCO4)cc2C1=O
26 | inactive |  | C[C@H]1CCCCO[C@@H](CN(C)C(=O)Nc2ccccc2)[C@@H](C)CN([C@@H](C)CO)C(=O)c2cc(NC(=O)NC3CCCCC3)ccc2O1
27 | inactive |  | C[C@H](CO)N1C[C@H](C)[C@H](CN(C)C(=O)Nc2cccc3ccccc23)OCCCC[C@H](C)Oc2ccc(NC(=O)CCC(F)(F)F)cc2C1=O
28 | inactive |  | C[C@H](CO)N1C[C@H](C)[C@H](CN(C)C(=O)Nc2ccc(F)cc2)OCCCC[C@H](C)Oc2ccc(NC(=O)C3CCCCC3)cc2C1=O
29 | inactive |  | C[C@H](CO)N1C[C@H](C)[C@H](CN(C)C(=O)Nc2ccc(F)cc2)OCCCC[C@H](C)Oc2ccc(NC(=O)C3CCCC3)cc2C1=O
30 | inactive |  | C[C@H](CO)N1C[C@H](C)[C@H](CN(C)C(=O)Nc2ccc(F)cc2)OCCCC[C@H](C)Oc2ccc(NC(=O)C3CCC3)cc2C1=O
31 | inactive |  | C[C@H]1CCCCO[C@@H](CN(C)C(=O)Nc2ccc(C(F)(F)F)cc2)[C@@H](C)CN([C@@H](C)CO)C(=O)c2cc(NC(=O)CCC(F)(F)F)ccc2O1
32 | inactive |  | C[C@H]1CCCCO[C@H](CN(C)C(=O)Nc2cccc3ccccc23)[C@@H](C)CN([C@@H](C)CO)C(=O)c2cc(NC(=O)C3CCCCC3)ccc2O1
33 | inactive |  | C[C@@H]1CCCCO[C@H](CN(C)C(=O)Nc2cccc3ccccc23)[C@@H](C)CN([C@@H](C)CO)C(=O)c2cc(NC(=O)C3CCCCC3)ccc2O1
34 | inactive |  | C[C@@H]1CCCCO[C@H](CN(C)C(=O)Nc2cccc3ccccc23)[C@H](C)CN([C@H](C)CO)C(=O)c2cc(NC(=O)C3CCCCC3)ccc2O1
35 | inactive |  | C[C@@H]1CN([C@H](C)CO)C(=O)c2cc(NC(=O)C3CCCCC3)ccc2O[C@@H](C)CCCCO[C@@H]1CN(C)C(=O)Nc1cccc2ccccc12
36 |  | > 70 µM (inactive) | C[C@H]1CCCCO[C@@H](CN(C)S(=O)(=O)c2ccc(Cl)cc2)[C@@H](C)CN([C@@H](C)CO)C(=O)c2cc(NC(=O)NC3CCCCC3)ccc2O1
37 | inactive |  | COc1ccc(NC(=O)N(C)C[C@@H]2OCCCC[C@H](C)Oc3ccc(NC(=O)C4CCCCC4)cc3C(=O)N([C@H](C)CO)C[C@@H]2C)cc1
38 | inactive |  | C[C@H](CO)N1C[C@H](C)[C@H](CN(C)C(=O)Nc2ccc(F)cc2)OCCCC[C@H](C)Oc2ccc(NC(=O)Nc3ccc(F)cc3)cc2C1=O
39 | inactive |  | C[C@H](CO)N1C[C@H](C)[C@H](CN(C)C(=O)Nc2cccc(F)c2)OCCCC[C@H](C)Oc2ccc(NC(=O)C3CCCCC3)cc2C1=O
40 | inactive |  | C[C@H](CO)N1C[C@H](C)[C@H](CN(C)C(=O)Nc2cccc3ccccc23)OCCCC[C@H](C)Oc2ccc(NC(=O)C3CCCCC3)cc2C1=O
41 | inactive |  | C[C@@H]1CCCCO[C@@H](CN(C)C(=O)Nc2cccc3ccccc23)[C@@H](C)CN([C@H](C)CO)C(=O)c2cc(NC(=O)C3CCCCC3)ccc2O1
42 | inactive |  | C[C@H](CO)N1C[C@H](C)[C@H](CN(C)C(=O)Nc2ccccc2)OCCCC[C@H](C)Oc2ccc(NC(=O)NC3CCCCC3)cc2C1=O
43 | inactive |  | C[C@@H]1CN([C@@H](C)CO)C(=O)c2cc(NC(=O)C3CCCCC3)ccc2O[C@@H](C)CCCCO[C@H]1CN(C)C(=O)Nc1cccc2ccccc12
44 | inactive |  | CC(=O)Nc1ccc2c(c1)C(=O)N([C@H](C)CO)C[C@H](C)[C@H](CN(C)C(=O)Nc1ccc(F)cc1)OCCCC[C@H](C)O2
45 | inactive |  | C[C@H]1CCCCO[C@@H](CN(C)C(=O)Nc2cccc3ccccc23)[C@@H](C)CN([C@@H](C)CO)C(=O)c2cc(NC(=O)C3CCCCC3)ccc2O1
46 | inactive |  | C[C@H](CO)N1C[C@H](C)[C@H](CN(C)C(=O)Nc2ccc(Cl)cc2)OCCCC[C@H](C)Oc2ccc(NC(=O)C3CCCCC3)cc2C1=O
47 | inactive |  | C[C@H](CO)N1C[C@H](C)[C@H](CN(C)C(=O)Nc2ccc(C(F)(F)F)cc2)OCCCC[C@H](C)Oc2ccc(NC(=O)CCC(F)(F)F)cc2C1=O
48 | inactive |  | C[C@H](CO)N1C[C@H](C)[C@H](CN(C)C(=O)Nc2ccc3c(c2)OCO3)OCCCC[C@H](C)Oc2ccc(NC(=O)NC3CCCCC3)cc2C1=O
49 | inactive |  | COc1ccc(S(=O)(=O)N(C)C[C@@H]2OCCCC[C@H](C)Oc3ccc(NS(=O)(=O)c4ccc(F)cc4)cc3C(=O)N([C@@H](C)CO)C[C@@H]2C)cc1
50 | inactive |  | C[C@H](CO)N1C[C@H](C)[C@H](CN(C)C(=O)Nc2ccccc2)OCCCC[C@H](C)Oc2ccc(NC(=O)C3CCCCC3)cc2C1=O
51 | inactive |  | C[C@H](CO)N1C[C@H](C)[C@H](CN(C)C(=O)Nc2ccc3ccccc3c2)OCCCC[C@H](C)Oc2ccc(NC(=O)C3CCCCC3)cc2C1=O
